Data from publication PMC8658824, “ThermoSlope: A Software for Determining Thermodynamic Parameters from Single Steady-State Experiments” (Molecules, 2021).

Experiments:
[1] = biological target: T1, Pseudoalteromonas haloplanktis α-amylase (AHA) (Pseudoalteromonas haloplanktis, UniProt P29957); assay: colourimetric, […] nm, temperature gradient (ThermoSlope); format: biochemical; conditions: phosphate buffered saline; 60 nM enzyme; 283-306 K, 1 K/min
T1 construct: gene amy; recombinant, E. coli, same protocol as pLipA (IMAC, then HiTrap SP)
T1 sequence (P29957 25-477): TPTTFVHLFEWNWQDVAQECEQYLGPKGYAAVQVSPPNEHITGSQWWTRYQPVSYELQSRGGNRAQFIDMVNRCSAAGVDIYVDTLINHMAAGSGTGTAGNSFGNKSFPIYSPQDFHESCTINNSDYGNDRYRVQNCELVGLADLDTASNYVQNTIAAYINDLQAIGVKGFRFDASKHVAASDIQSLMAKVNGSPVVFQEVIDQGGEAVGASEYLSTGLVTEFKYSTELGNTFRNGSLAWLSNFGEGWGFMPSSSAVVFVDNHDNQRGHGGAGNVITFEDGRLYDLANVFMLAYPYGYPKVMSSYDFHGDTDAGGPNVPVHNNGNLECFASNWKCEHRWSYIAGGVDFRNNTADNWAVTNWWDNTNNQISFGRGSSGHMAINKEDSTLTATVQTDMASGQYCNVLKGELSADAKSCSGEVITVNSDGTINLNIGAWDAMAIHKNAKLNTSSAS

[2] = biological target: T2, Pig porcine α-amylase (PPA) (Sus scrofa, UniProt P00690); assay: as above; format: biochemical; conditions: phosphate buffered saline; 0.45 nM enzyme; 283-363 K, 1 K/min
T2 construct: gene AMY2; commercial native enzyme (Sigma-Aldrich A4268)
T2 sequence (P00690 16-511): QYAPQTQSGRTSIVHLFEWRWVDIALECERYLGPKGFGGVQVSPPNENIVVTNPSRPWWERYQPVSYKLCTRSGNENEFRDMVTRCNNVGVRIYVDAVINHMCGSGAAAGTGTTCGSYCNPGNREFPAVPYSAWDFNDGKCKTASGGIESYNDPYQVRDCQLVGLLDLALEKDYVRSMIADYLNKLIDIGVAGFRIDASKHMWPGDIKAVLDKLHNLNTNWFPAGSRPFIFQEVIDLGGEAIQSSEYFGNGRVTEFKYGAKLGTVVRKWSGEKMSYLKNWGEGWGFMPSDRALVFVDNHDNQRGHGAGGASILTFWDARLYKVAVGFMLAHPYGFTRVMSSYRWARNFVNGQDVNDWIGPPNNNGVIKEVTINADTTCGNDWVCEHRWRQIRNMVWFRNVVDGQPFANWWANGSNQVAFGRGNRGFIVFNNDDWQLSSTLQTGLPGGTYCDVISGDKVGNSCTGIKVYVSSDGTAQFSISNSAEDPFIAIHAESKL

[3] = biological target: T3, Bacillus licheniformis α-amylase (BLA) (Bacillus licheniformis, UniProt P06278); assay: as above; format: biochemical; conditions: phosphate buffered saline; 3.8 µM enzyme; 303-363 K, 2 K/min
T3 construct: gene amyS; commercial enzyme (Sigma-Aldrich A3403)

[4] = substrate: CCCC(=O)Oc1ccc([N+](=O)[O-])cc1; assay: purified protein; format: biochemical, Bacillus pumilus; conditions: 298 K, 50 mM potassium phosphate pH 7.2, 5% acetonitrile, 1 nM enzyme, stepwise approach, 25.0 °C

T3 sequence (P06278 30-512): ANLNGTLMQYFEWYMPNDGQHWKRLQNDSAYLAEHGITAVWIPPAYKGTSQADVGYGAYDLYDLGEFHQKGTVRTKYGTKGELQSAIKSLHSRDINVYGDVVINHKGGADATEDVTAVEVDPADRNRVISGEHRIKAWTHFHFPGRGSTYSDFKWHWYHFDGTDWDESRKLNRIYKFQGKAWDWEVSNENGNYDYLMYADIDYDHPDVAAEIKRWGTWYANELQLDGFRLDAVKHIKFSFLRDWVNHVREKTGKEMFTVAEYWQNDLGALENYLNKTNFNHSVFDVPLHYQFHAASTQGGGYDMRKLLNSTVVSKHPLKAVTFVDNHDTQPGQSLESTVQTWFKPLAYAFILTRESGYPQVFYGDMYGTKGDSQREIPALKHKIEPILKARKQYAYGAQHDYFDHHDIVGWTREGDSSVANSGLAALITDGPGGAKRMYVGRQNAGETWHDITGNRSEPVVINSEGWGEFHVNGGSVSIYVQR

With `O=[N+]([O-])c1ccc(O[C@H]2O[C@H](CO)[C@@H](O[C@H]3O[C@H](CO)[C@@H](O[C@H]4O[C@H](CO)[C@@H](O)[C@H](O)[C@H]4O)[C@H](O)[C@H]3O)[C@H](O)[C@H]2O)c(Cl)c1` [2-Chloro-4-nitrophenyl-α-D-maltotrioside] the “colourimetric, 405 nm, temperature gradient (ThermoSlope)” value (from here on “colourimetric, 405 nm … (ThermoSlope)”) [1] was “α-amylases were completed in a similar fashion using the ThermoSlope-approach with the chromogenic substrate”, the “colourimetric, 405 nm … (ThermoSlope)” value [2] was “α-amylases were completed in a similar fashion using the ThermoSlope-approach with the chromogenic substrate” and the “colourimetric, 405 nm … (ThermoSlope)” value [3] was “α-amylases were completed in a similar fashion using the ThermoSlope-approach with the chromogenic substrate”.

B1: pLipA (Bacillus pumilus LipA; Lipase L5) (Bacillus pumilus) (protein)
chain: AEHNPVVMVHGMGGASYNFASIKSYLVTQGWDRNQLFAIDFIDKTGNNRNNGPRLSRFVKDVLGKTGAKKVDIVAHSMGGANTLYYIKNLDGGDKIENVVTLGGANGLVSLRALPGTDPNQKILYTSVYSSADMIVVNSLSRLIGARNVLIHGVGHISLLASSQVKGYIKEGLNGGGQNTN
notes: residues 35-215, codon-optimised synthetic gene in pET-22b(+) NdeI/XhoI, His-tag purified (tag removal not mentioned), E. coli NiCo21(DE3)
In the case of B1, the Km [4] is reported as 500 ± 100 µM and the kcat [4] is reported as 310 ± 20 s⁻¹.
